{"source": "patent US20240165064A1", "about": "“LONG-LASTING RESORBABLE SUBCUTANEOUS IMPLANT WITH PROLONGED RELEASE OF PRE-CONCENTRATED PHARMACOLOGICALLY ACTIVE SUBSTANCE IN POLYMER FOR THE TREATMENT OF HYPOTHYROIDISM, AND METHOD” (priority 2021, published 2024)", "origin": "cited, not measured here", "tested_on": "patients with primary hypothyroidism", "key": {"[1]": {"conditions": "T3 group compared to T4 group, 6 weeks"}}, "data": [{"compound": "N[C@@H](Cc1cc(I)c(Oc2ccc(O)c(I)c2)c(I)c1)C(=O)O", "note": "[T3, triiodothyronine]", "values": [{"measurement": "weight lost on average more than the group receiving T4 treatment", "setting": "14 patients, three times a day for 6 weeks, T3 group compared to T4 group", "result": "1.8 ± 1.9", "unit": "kg"}, {"measurement": "decrease in low density cholesterol (non-HDL)", "setting": "[1]", "result": "13.3±12.1", "unit": "%"}, {"measurement": "decrease in total cholesterol", "setting": "[1]", "result": "10.9±10.0", "unit": "%"}, {"measurement": "reduction in apolipoprotein B", "setting": "[1]", "result": "18.3±28.6", "unit": "%"}, {"measurement": "side effects", "setting": "T3 treatment compared to T4 treatment, 6 weeks", "result": "without presenting significant side effects"}]}]}
